According to PubChem BioAssay AID1259407 (Chemical Carcinogenesis Research Information System (CCRIS), 2018):
Activity calls are given as the source filed them. No rule for the calls is given here.

System: CCRIS mutagenicity, Ames/micronucleus/aberration tests
Assay: CCRIS mutagenicity studies

Q: Which results are given for O=[N+]([O-])c1ccc2c(c1)Cc1ccccc1-2?
A: mutagenic call (End Point: IN VITRO CHROMOSOMAL ABERRATIONS, Test System: CHINESE HAMSTER LUNG (CHL) CELLS, Metabolic Activation: NONE): inactive; negative; mutagenic call (End Point: IN VITRO CHROMOSOMAL ABERRATIONS, Test System: CHINESE HAMSTER LUNG (CHL) CELLS, Metabolic Activation: RAT, LIVER, S-9, KC-400): active; positive; mutagenic call (End Point: IN VITRO MICRONUCLEUS, Test System: CHL/IU CELLS, Metabolic Activation: NONE): active; positive; mutagenic call (Test System: AMES SALMONELLA TYPHIMURIUM, Strain/Indicator: TA98 (1,8-DNP6), Metabolic Activation: NONE, Method: PREINCUBATION): active; positive; mutagenic call (Test System: AMES SALMONELLA TYPHIMURIUM, Strain/Indicator: TA98(1,8-DNP6), Metabolic Activation: NONE, Method: STANDARD PLATE): active; positive; mutagenic call (Test System: AMES SALMONELLA TYPHIMURIUM, Strain/Indicator: TA98 (NR), Metabolic Activation: NONE, Method: PREINCUBATION): active; positive; mutagenic call (Test System: AMES SALMONELLA TYPHIMURIUM, Strain/Indicator: TA98(NR), Metabolic Activation: NONE, Method: STANDARD PLATE): active; positive; mutagenic call (Test System: AMES SALMONELLA TYPHIMURIUM, Strain/Indicator: TA98 (NR), Metabolic Activation: RAT LIVER S-9 (10%), Method: PREINCUBATION): active; positive; mutagenic call (Test System: AMES SALMONELLA TYPHIMURIUM, Strain/Indicator: TA98 (NR), Metabolic Activation: RAT LIVER S-9, 3-METHYLCHOLANTHRENE (10%), Method: PREINCUBATION): active; positive; mutagenic call (Test System: AMES SALMONELLA TYPHIMURIUM, Strain/Indicator: TA98 (NR), Metabolic Activation: RAT LIVER S-9, BETA-NAPHTHAFLAVONE (10%), Method: PREINCUBATION): active; positive; mutagenic call (Test System: AMES SALMONELLA TYPHIMURIUM, Strain/Indicator: TA98(NR), Metabolic Activation: RAT LIVER S-9, PHENOBARBITAL (10%), Method: PREINCUBATION): active; positive; mutagenic call (Test System: AMES SALMONELLA TYPHIMURIUM, Strain/Indicator: TA98 (NR), Metabolic Activation: RAT LIVER S-9 PCB, 10%, Method: PREINCUBATION): active; positive; mutagenic call (Test System: AMES SALMONELLA TYPHIMURIUM, Strain/Indicator: TA98, Metabolic Activation: NONE, Method: SPIRAL ASSAY): active; positive; mutagenic call (Test System: AMES SALMONELLA TYPHIMURIUM, Strain/Indicator: TA98, Metabolic Activation: RAT, LIVER, S-9, AROCLOR 1254, Method: SPIRAL ASSAY): active; positive; mutagenic call (Test System: AMES SALMONELLA TYPHIMURIUM, Strain/Indicator: TA98, Metabolic Activation: RAT, LIVER, S-9, AROCLOR 1254, Method: STANDARD PLATE): active; positive; mutagenic call (Test System: AMES SALMONELLA TYPHIMURIUM, Strain/Indicator: TA98, Metabolic Activation: RAT, LIVER, S-9, PCB (10%), Method: PREINCUBATION): active; positive; mutagenic call (Test System: AMES SALMONELLA TYPHIMURIUM, Strain/Indicator: TA98, Metabolic Activation: S-9, Method: PREINCUBATION): active; positive; mutagenic call (Test System: AMES SALMONELLA TYPHIMURIUM, Strain/Indicator: TA98, Metabolic Activation: S-9, Method: STANDARD PLATE): active; positive; mutagenic call (Test System: AMES SALMONELLA TYPHIMURIUM, Strain/Indicator: TA100(NR), Metabolic Activation: NONE, Method: STANDARD PLATE): inactive; negative; mutagenic call (Test System: AMES SALMONELLA TYPHIMURIUM, Strain/Indicator: TA100(TN5-1,8-DNP1012), Metabolic Activation: NONE, Method: STANDARD PLATE): inactive; negative; mutagenic call (Test System: AMES SALMONELLA TYPHIMURIUM, Strain/Indicator: TA100, Metabolic Activation: NONE, Method: PREINCUBATION): active; positive; mutagenic call (Test System: AMES SALMONELLA TYPHIMURIUM, Strain/Indicator: TA100, Metabolic Activation: NONE, Method: SPIRAL ASSAY): active; positive; mutagenic call (Test System: AMES SALMONELLA TYPHIMURIUM, Strain/Indicator: TA100, Metabolic Activation: RAT, LIVER, S-9, AROCLOR 1254, Method: SPIRAL ASSAY): active; positive; mutagenic call (Test System: AMES SALMONELLA TYPHIMURIUM, Strain/Indicator: TA100, Metabolic Activation: RAT, LIVER, S-9, AROCLOR 1254, Method: STANDARD PLATE): active; positive; mutagenic call (Test System: AMES SALMONELLA TYPHIMURIUM, Strain/Indicator: TA100, Metabolic Activation: S-9, Method: STANDARD PLATE): active; positive; mutagenic call (Test System: AMES SALMONELLA TYPHIMURIUM, Strain/Indicator: TA102, Metabolic Activation: NONE, Method: PREINCUBATION): active; positive; mutagenic call (Test System: AMES SALMONELLA TYPHIMURIUM, Strain/Indicator: TA1535, Metabolic Activation: NONE, Method: PREINCUBATION): active; positive; mutagenic call (Test System: AMES SALMONELLA TYPHIMURIUM, Strain/Indicator: TA1535, Metabolic Activation: NONE, Method: SPIRAL ASSAY): inactive; negative; mutagenic call (Test System: AMES SALMONELLA TYPHIMURIUM, Strain/Indicator: TA1535, Metabolic Activation: NONE, Method: STANDARD PLATE): inactive; negative; mutagenic call (Test System: AMES SALMONELLA TYPHIMURIUM, Strain/Indicator: TA1535, Metabolic Activation: RAT, LIVER, S-9, AROCLOR 1254, Method: SPIRAL ASSAY): inactive; negative; mutagenic call (Test System: AMES SALMONELLA TYPHIMURIUM, Strain/Indicator: TA1535, Metabolic Activation: RAT, LIVER, S-9, AROCLOR 1254, Method: STANDARD PLATE): inactive; negative; mutagenic call (Test System: AMES SALMONELLA TYPHIMURIUM, Strain/Indicator: TA1537, Metabolic Activation: NONE, Method: SPIRAL ASSAY): active; positive; mutagenic call (Test System: AMES SALMONELLA TYPHIMURIUM, Strain/Indicator: TA1537, Metabolic Activation: NONE, Method: STANDARD PLATE): active; positive; mutagenic call (Test System: AMES SALMONELLA TYPHIMURIUM, Strain/Indicator: TA1537, Metabolic Activation: RAT, LIVER, S-9, AROCLOR 1254, Method: SPIRAL ASSAY): active; positive; mutagenic call (Test System: AMES SALMONELLA TYPHIMURIUM, Strain/Indicator: TA1537, Metabolic Activation: RAT, LIVER, S-9, AROCLOR 1254, Method: STANDARD PLATE): active; positive; mutagenic call (Test System: AMES SALMONELLA TYPHIMURIUM, Strain/Indicator: TA1538, Metabolic Activation: NONE, Method: STANDARD PLATE): active; positive; mutagenic call (Test System: AMES SALMONELLA TYPHIMURIUM, Strain/Indicator: TA1975, Metabolic Activation: NONE, Method: PREINCUBATION): active; positive; mutagenic call (Test System: AMES SALMONELLA TYPHIMURIUM, Strain/Indicator: YG1020, Metabolic Activation: NONE, Method: PREINCUBATION): active; positive; mutagenic call (Test System: AMES SALMONELLA TYPHIMURIUM, Strain/Indicator: YG1024, Metabolic Activation: NONE, Method: PREINCUBATION): active; positive; mutagenic call (Test System: AMES SALMONELLA TYPHIMURIUM, Strain/Indicator: YG1025, Metabolic Activation: NONE, Method: PREINCUBATION): active; positive; mutagenic call (Test System: AMES SALMONELLA TYPHIMURIUM, Strain/Indicator: YG1029, Metabolic Activation: NONE, Method: PREINCUBATION): active; positive; mutagenic call (Test System: AMES SALMONELLA TYPHIMURIUM, Strain/Indicator: YG3001, Metabolic Activation: NONE, Method: PREINCUBATION): active; positive; mutagenic call (Test System: AMES SALMONELLA TYPHIMURIUM, Strain/Indicator: YG3002, Metabolic Activation: NONE, Method: PREINCUBATION): active; positive; mutagenic call (Test System: AMES SALMONELLA TYPHIMURIUM, Strain/Indicator: YG3003, Metabolic Activation: NONE, Method: PREINCUBATION): active; positive; mutagenic call (Test System: AMES SALMONELLA TYPHIMURIUM, Strain/Indicator: YG7112, Metabolic Activation: NONE, Method: PREINCUBATION): active; positive; mutagenic call (Test System: AMES SALMONELLA TYPHIMURIUM, Strain/Indicator: YG7113, Metabolic Activation: NONE, Method: PREINCUBATION): active; positive; mutagenic call (Test System: CHINESE HAMSTER OVARY, Strain/Indicator: CHO-K1-BH4 (HGPRT), Metabolic Activation: RAT, LIVER, S-9, AROCLOR, Method: SUSPENSION/PLATE): active; positive; mutagenic call (Test System: E. COLI, Strain/Indicator: WP2 UVRA, Metabolic Activation: HAMSTER, LIVER, S-9, AROCLOR 1254, Method: STANDARD PLATE): inactive; negative; mutagenic call (Test System: E. COLI, Strain/Indicator: WP2 UVRA, Metabolic Activation: HAMSTER, LIVER, S-9, Method: STANDARD PLATE): inactive; negative; mutagenic call (Test System: E. COLI, Strain/Indicator: WP2 UVRA, Metabolic Activation: MOUSE, LIVER, S-9, AROCLOR 1254, Method: STANDARD PLATE): inactive; negative; mutagenic call (Test System: E. COLI, Strain/Indicator: WP2 UVRA, Metabolic Activation: MOUSE, LIVER, S-9, Method: STANDARD PLATE): inactive; negative; mutagenic call (Test System: E. COLI, Strain/Indicator: WP2 UVRA, Metabolic Activation: NONE, Method: STANDARD PLATE): inactive; negative; mutagenic call (Test System: E. COLI, Strain/Indicator: WP2 UVRA, Metabolic Activation: RAT, LIVER, S-9, AROCLOR 1254, Method: STANDARD PLATE): inactive; negative; mutagenic call (Test System: E. COLI, Strain/Indicator: WP2 UVRA, Metabolic Activation: RAT, LIVER, S-9, Method: STANDARD PLATE): inactive; negative; mutagenic call (Test System: MOUSE LYMPHOMA, Strain/Indicator: L5178Y (TK+/TK-), Metabolic Activation: NONE, Method: SUSPENSION/PLATE): active; positive; mutagenic call (Test System: UDS RAT HEPATOCYTES, Strain/Indicator: THY INCORP, Metabolic Activation: NONE, Method: AUTORADIOGRAPHY (SERUM-FREE MEDIA)): active; positive
